{"source": "patent US20100034839A1", "about": "“METHODS FOR TREATING VIRAL DISORDERS” (priority 2008, published 2010)", "key": {"mouse splenic B cells": {"system": "mouse splenic B cells", "assay": "TLR activation of mouse splenic B cells: ectopic CLIP in MHC class II", "format": "cell-based", "details": "for exogenous CLIP expression on activated mouse B cells: treatment in vitro with Toll ligand, FIG. 12d", "experimental": "FIG. 12 depicts TLR activation of mouse splenic B cells results in ectopic CLIP in MHC class II. FIG. 12a: LPS activation of spleen cells from B6.129 mice (H-2b). B cells are detected by staining with PE conjugated anti-mouse B220, shown on Y-axis, versus staining with 15G4-FITC anti-mouse CLIP/I-Ab, as shown on the X-axis. A representative of four experiments at unique time points, 0 to 72 hours by 24-hour increments, left to right, is shown. FIG. 12b (linear representation from FIG. 12a): changes in percentages of CLIP+ B cells, left Y-axis, and quantitative depiction of increasing mean fluorescence intensity of CLIP/I-Ab staining, right Y-axis. FIG. 12c: antigen receptor engagement increases cell surface MHC class II but not ectopic CLIP. B6.129 splenocytes, untreated or treated in vitro with anti-immunoglobulin (as a surrogate for antigen) or CpG-ODN were stained with anti-mouse B220-PE versus 15G4-FITC anti-mouse CLIP/I-Ab (bars, left Y-axis) or with anti-mouse B220-PE versus anti-mouse MHC class II-FITC (I-Ab) (line graph, right Y-axis). FIG. 12d: toll ligands 9, 10 used to activate cells, listed from top down, Poly I:C, Pam3Cys, R848, LPS, CpG-ODN, and no treatment, as indicated. Shown are percentages of CLIP+ B cells in splenocytes stimulated […] from B6.129 mice, left panel; H2M-deficient mice, middle panel; Ii-deficient mice, right panel.\nTotal splenocytes, from either B6.129, Ii-deficient, or H2M-deficient mice were cultured with LPS for 24, 48, 72, or 96 hours as indicated. Cells were harvested and stained by two-color fluorescence using 15G4-FITC anti-mouse CLIP/I-A^b versus anti-mouse B220 PE.\nFreshly isolated splenocytes, single cell suspensions of lymph node cells, resting (or activated) B cells, or primed B cells were isolated from B6.129, Ii-deficient, or H2M-deficient mice and cultured in 24 well plates in complete RPMI medium, with or without the appropriate Toll ligand, at 10^6 cells/ml. Cells were cultured for 24, 48, 72, 96, or up to 144 hours. Cells were harvested and stained by flow cytometric analysis using either a Beckman Coulter Excel or a Beckman Coulter FC500 flow cytometer. Cells were stained by two-color fluorescence using 15G4-FITC anti-mouse CLIP/I-A^b versus anti-mouse B220 PE. For co-culture experiments (5×10^5) were combined with T cells (5×10^4) in 24 well plates in complete medium, with or without the appropriate antigen. Experiments with 3A9, 2A11 or A6.A2 employed 3 mg/ml tryptic digest of HEL as a source of pre-processed antigen, i.e., peptide. Cultures were incubated overnight at […] in a humidified 5% CO2, 95% air incubator.\nMulti-parameter flow cytometric analysis for the fluorescent detection of ectopic CLIP, mouse B220, human CD19 or CD20, human CLIP, human HLA-DR, and human CLIP or apoptosis were performed using a Beckman Coulter Excel or a Beckman Coulter FC500 flow cytometer (Beckman Coulter, Hialeah, Fla.). Mouse splenic cells were cultured in complete RPMI for the times indicated. Resting, primed, or activated B cells were cultured in the presence of T cells (vide supra). At the end of 16 h of culture, the cells were harvested and washed. Ethidium bromide (detected by red fluorescence) was added immediately before analysis of each tube. The cells were analyzed by first gating using forward vs. side scatter then using increased fluorescence as a measure of detection of the indicated cell surface antigens."}, "[1]": {"system": "human B cells from peripheral blood mononuclear cells (PBMC)", "assay": "TLR activation of human B cells in PBMC cultures: ectopic CLIP", "format": "cell-based", "details": "PBMC from five healthy donors, 24 hours, 5 μg per ml", "experimental": "(§1) FIG. 13 depicts TLR activation results in ectopic CLIP expression on human B cells from peripheral blood mononuclear cells (PBMC) cultures. FIG. 13a: human PBMC from five donors were cultured for 24 hours with toll ligands (CpG-ODN, LPS, Pam3Cys, and Poly I:C) and were stained with a pan anti-HLA-DR-FITC antibody (values of isotype controls were subtracted from the specific stains, ΔMFI). FIG. 13b: cells were stained using anti-human CLIP-FITC versus CD19-PE (values of isotype controls were subtracted from the specific stains, ΔMFI). For FIGS. 13a & 13b: nil vs. CpG p=0.06821; nil vs. LPS p=0.0390; nil vs. PAM p=0.0124. FIG. 13c: cells were stained for CLIP-FITC versus CD19-PE as described for FIG. 13b. The data represent the percent of total PBMC that are CLIP+ B cells subsequent to treatment. For FIG. 13c: nil vs. CpG p=0.0058; nil vs. LPS p=0.0254. […]\n(§2) PBMC were prepared from a total of seven adult normal donors, five for examining the effects of TLR binding on the percentage of ectopic CLIP^+ B cells and changes in mean fluorescence intensity of the CLIP staining resulting from TLR stimulation with CpG-ODN, LPS, Pam-3-Cys, and Poly I:C. […] Cells were analyzed using either a BD FacsCalibur, for the five samples, or a Coulter FC500 for the two tissue typed samples. […]"}, "[2]": {"system": "CLIP^+ B cells in human PBMC", "assay": "Peptide replacement of CLIP on R848-activated human PBMC B cells", "format": "cell-based", "details": "PBMC of two donors cultured with R848 for 48 hours with peptide", "experimental": "as §1, §2"}, "Raji or Daudi cells": {"system": "Raji or Daudi cells", "assay": "Cell surface CLIP and CD74 levels after MKN1 (bioCLIP)", "format": "cell-based, human", "experimental": "The ability of MKN1 (bioCLIP) to alter cell surface CLIP and CD74 levels was also determined using Raji or Daudi cells."}, "[3]": {"system": "cell surface CLIP on Raji and Daudi cells", "assay": "Competition of synthetic peptides with cell surface CLIP (Fitc anti-human CLIP)", "format": "cell-based", "details": "biotinylated competing peptide", "source_text": "Based on a computational model comparing the peptide content of TNP mixture and identifying those peptides that would have the likeliest ability to compete for the peptide/antigen binding site for MHC class II (human HLA-DR, DP, and DQ), several peptide candidates were synthesized and examined for activity. The purpose of the study was to determine if synthetic peptides can compete for binding with CLIP peptides as measured with either Fitc anti-human CLIP antibody or, comparatively in the case of biotinylated peptides, with Streptavidin.\nCell Culture Conditions: The Raji and Daudi cell lines were purchased from American Type Culture Collection, were thawed, and grown in RPMI 1640 medium supplemented with standard supplements, including 10% fetal calf serum, gentamycin, penicillin, streptomycin, sodium pyruvate, HEPES buffer, 1-glutamine, and 2-ME.\nProtocol: Cells were plated into a 12 well plate with 3 mls total volume containing approximately 1.5×10^6/well for Daudi cells and 3.0×10^6/well for Raji cells. Treatment groups included no treatment as control; MKN 3 and MKN 5 at 50 microMolar final concentration based on the reported molarity of the synthesized compounds.\nThe cells were incubated at 37° C. in an atmosphere containing 5% CO2 and approximately 92% humidity. The cells were incubated for 4 and 24 hours. At each time point, the cells from that experimental time were harvested and stained for flow cytometric analysis of cell surface expression of CLIP (MHC Class II invariant peptide, human) by using the commercially available (Becton/Dickinson/PHarmingen) anti-human CLIP Fitc. Catalogue #555981 versus Streptavidin.\nHarvested cells were stained using standard staining procedure that called for a 1:100 dilution of Fitc-anti-human CLIP or isotype control versus 1:200 dilution of the commercially prepared Streptavidin. Following staining on ice for 25 minutes, cells were washed with PBS/FCS and resuspended in 100 microliters and added to staining tubes containing 400 microliters of PBS. Samples were acquired and analyzed on a Coulter Excel Flow Cytometer.\nIn the Histogram analyses of FIGS. 5-7 the Y axis represents cell number of the 5000 live cells versus the X axis which is a reflection of relative Fitc fluorescence versus Streptavidin-PE (eBioscience, Cat. #12-4317) that will bind with high affinity to cell-bound biotinylated peptides. The distance between the histogram from the isotype control staining versus the histogram reflecting the specific stain and is a measure of level of cell surface CLIP or the biotinylated peptide when stained with Streptavidin on a population of live Raji or Daudi cells as indicated."}, "B cell surface CLIP": {"system": "B cell surface CLIP", "assay": "B cell surface CLIP after 2-Deoxyglucose and dichloroacetate (FIG. 4)", "format": "cell-based"}}, "note": "No end group written: not given here. *: point of attachment. Biotin = O=C1N[C@H]2[C@H](CS[C@H]2CCCCC(=O)*)N1", "data": [{"molecule": "lipopolysaccharide [LPS]", "values": [{"measurement": "exogenous CLIP associated with MHC class II on splenic B cells", "setting": "mouse splenic B cells; in vitro stimulation of resting mouse splenocytes, 0 to 72 hours", "result": "time-dependent increase in exogenous CLIP associated with MHC class II"}, {"measurement": "exogenous CLIP expression on activated mouse B cells", "setting": "mouse splenic B cells", "result": "resulted in exogenous CLIP expression on the activated mouse B cells"}, {"measurement": "ectopic CLIP on human B cells", "setting": "[1]", "result": "Statistically significant increases in ectopic CLIP"}]}, {"molecule": "ANSGIIGDITEEVGGQY [VGV-pB]", "values": [{"measurement": "percentage of CLIP^+ B cells and level of CLIP per B cell", "setting": "[2]", "result": "reduced the frequency of CLIP^+ B cells and the level of CLIP per cell in one individual but not the other"}]}, {"molecule": "SGGGSKMRMATPLLMQALY (Biotin-SGGGSKMRMATPLLMQALY) [MKN1]", "values": [{"measurement": "cell surface CLIP and CD74 levels", "setting": "Raji or Daudi cells", "result": "alters cell surface CLIP and CD74 levels"}]}, {"molecule": "(S)-(2,3-bis(palmitoyloxy)-(2RS)-propyl)-N-palmitoyl-(R)-Cys-(S)-Ser(S)-Lys4-OH, trihydrochloride [Pam3Cys]", "values": [{"measurement": "exogenous CLIP expression on activated mouse B cells", "setting": "mouse splenic B cells", "result": "resulted in exogenous CLIP expression on the activated mouse B cells"}]}, {"molecule": "KALVQNDTLLQVKG [SEQ ID NO 1]", "values": [{"measurement": "cell surface bound CLIP", "setting": "[3]; 4 hours", "result": "small decreases in cell surface bound CLIP"}, {"measurement": "cell surface bound CLIP", "setting": "[3]; 24 hours", "result": "significant decreases"}]}, {"molecule": "polyinosinic:polycytidylic acid [Poly I:C]", "values": [{"measurement": "exogenous CLIP expression on activated mouse B cells", "setting": "mouse splenic B cells", "result": "resulted in exogenous CLIP expression on the activated mouse B cells"}]}, {"molecule": "CCOCc1nc2c(N)nc3ccccc3c2n1CC(C)(C)O", "note": "[R848, imidazoquinoline resiquimod]", "values": [{"measurement": "exogenous CLIP expression on activated mouse B cells", "setting": "mouse splenic B cells", "result": "resulted in exogenous CLIP expression on the activated mouse B cells"}]}, {"molecule": "O=CC[C@@H](O)[C@H](O)[C@H](O)CO", "note": "[2-Deoxyglucose, 2-deoxy-D-glucose]", "values": [{"measurement": "B cell surface CLIP", "setting": "B cell surface CLIP", "result": "affects B cell surface CLIP"}]}]}
